Key:
[1] = Additional study: grade 3 or greater treatment-emergent adverse events; type: in vivo, human
[2] = test system: TORC1 (p4EBP1 and pS6) and TORC2 (pPRAS40); test: Human skin immunohistochemistry assay (skin biopsies, Phase I trial); type: in vivo
Description: Skin tissue was fixed in 10% neutral-buffered formalin solution for 24 hours and then processed and embedded in paraffin block. Sections (4 μm) were cut and mounted onto microscopic slides. Sections were incubated with primary antibodies (p4EBP1, pS6, or pRAS40) overnight and developed using a chromogenic substrate.
Pharmacodynamic (PD) endpoints were evaluated in surrogate (peripheral blood cells [PBCs], skin) and tumor tissues for the phosphorylation of TORC1-dependent markers (4EBP1/S6), and TORC2-dependent markers (AKT/PRAS40). 50 patients were treated in 3 intermittent dosing regimens; 21 in 6 cohorts ranging 7-40 mg QW, 20 in 5 cohorts ranging 6-20 mg QDx3d QW, and 9 in 3 cohorts ranging 7-13 mg QDxSd QW. […] The MTD for intermittent dosing was not reached. All adverse events (AEs) reported were reversible. The most common (≧20%, n=35) AEs considered possibly related to compound A reported in all 3 dosing regimens included nausea (51%), hyperglycemia (37%), mucosal inflammation (29%), rash (23%), asthenia (23%), vomiting (26%), and diarrhea (20%). The majority of AEs considered possibly related to compound A in any regimen were Grade 1 or 2. The only reported Grade ≧3 AE (≧5%) possibly related to compound A in 3 regimens was lymphopenia (6%). Tables 4-9 show summaries of observed adverse events for various treatment regimens of the invention.

CC(C)n1nc(-c2ccc3oc(N)nc3c2)c2c(N)ncnc21 [compound A]
Grade 3 or greater TEAE: Anaemia ([1]; QD Dosing (N = 29)): 1 (3%)
Grade 3 or greater TEAE: Aspartate aminotransferase increase ([1]; QD Dosing (N = 29)): 0 (0%)
Grade 3 or greater TEAE: Asthenia ([1]; QD Dosing (N = 29)): 1 (3%)
Grade 3 or greater TEAE: Blood creatinine increase ([1]; QD Dosing (N = 29)): 0 (0%)
Grade 3 or greater TEAE: Deep vein thrombosis ([1]; QD Dosing (N = 29)): 0 (0%)
Grade 3 or greater TEAE: Diarrhoea ([1]; QD Dosing (N = 29)): 1 (3%)
Grade 3 or greater TEAE: Disease progression ([1]; QD Dosing (N = 29)): 0 (0%)
Grade 3 or greater TEAE: Fatigue ([1]; QD Dosing (N = 29)): 0 (0%)
Grade 3 or greater TEAE: Gamma-glutamyltransferase increase ([1]; QD Dosing (N = 29)): 0 (0%)
Grade 3 or greater TEAE: Hyperglycaemia ([1]; QD Dosing (N = 29)): 4 (14%)
Grade 3 or greater TEAE: Hypokalaemia ([1]; QD Dosing (N = 29)): 2 (7%)
Grade 3 or greater TEAE: Hyponatraemia ([1]; QD Dosing (N = 29)): 2 (7%)
Grade 3 or greater TEAE: Hypophsphataemia ([1]; QD Dosing (N = 29)): 0 (0%)
Grade 3 or greater TEAE: Lymphopenia ([1]; QD Dosing (N = 29)): 2 (7%)
Grade 3 or greater TEAE: Mucosal Inflammation ([1]; QD Dosing (N = 29)): 0 (0%)
Grade 3 or greater TEAE: Muscular weakness ([1]; QD Dosing (N = 29)): 0 (0%)
Grade 3 or greater TEAE: Nausea ([1]; QD Dosing (N = 29)): 0 (0%)
Grade 3 or greater TEAE: Neutropenia ([1]; QD Dosing (N = 29)): 0 (0%)
Grade 3 or greater TEAE: Pruritus ([1]; QD Dosing (N = 29)): 2 (7%)
Grade 3 or greater TEAE: Rash ([1]; QD Dosing (N = 29)): 7 (24%)
Grade 3 or greater TEAE: Thrombocytopenia ([1]; QD Dosing (N = 29)): 2 (7%)
Grade 3 or greater TEAE: Vomiting ([1]; QD Dosing (N = 29)): 0 (0%)
Patients Reporting at least one Grade 3 or greater TEAE ([1]; QD Dosing (N = 29)): 17 (59%)
Grade 3 or greater TEAE: Anaemia ([1]; QDx3d QW (N = 25)): 2 (8%)
Grade 3 or greater TEAE: Aspartate aminotransferase increase ([1]; QDx3d QW (N = 25)): 0 (0%)
Grade 3 or greater TEAE: Asthenia ([1]; QDx3d QW (N = 25)): 1 (4%)
Grade 3 or greater TEAE: Blood creatinine increase ([1]; QDx3d QW (N = 25)): 2 (8%)
Grade 3 or greater TEAE: Deep vein thrombosis ([1]; QDx3d QW (N = 25)): 1 (4%)
Grade 3 or greater TEAE: Diarrhoea ([1]; QDx3d QW (N = 25)): 1 (4%)
Grade 3 or greater TEAE: Disease progression ([1]; QDx3d QW (N = 25)): 0 (0%)
Grade 3 or greater TEAE: Fatigue ([1]; QDx3d QW (N = 25)): 0 (0%)
Grade 3 or greater TEAE: Gamma-glutamyltransferase increase ([1]; QDx3d QW (N = 25)): 1 (4%)
Grade 3 or greater TEAE: Hyperglycaemia ([1]; QDx3d QW (N = 25)): 4 (16%)
Grade 3 or greater TEAE: Hypokalaemia ([1]; QDx3d QW (N = 25)): 0 (0%)
Grade 3 or greater TEAE: Hyponatraemia ([1]; QDx3d QW (N = 25)): 0 (0%)
Grade 3 or greater TEAE: Hypophsphataemia ([1]; QDx3d QW (N = 25)): 3 (12%)
Grade 3 or greater TEAE: Lymphopenia ([1]; QDx3d QW (N = 25)): 2 (8%)
Grade 3 or greater TEAE: Mucosal Inflammation ([1]; QDx3d QW (N = 25)): 4 (16%)
Grade 3 or greater TEAE: Muscular weakness ([1]; QDx3d QW (N = 25)): 1 (4%)
Grade 3 or greater TEAE: Nausea ([1]; QDx3d QW (N = 25)): 1 (4%)
Grade 3 or greater TEAE: Neutropenia ([1]; QDx3d QW (N = 25)): 0 (0%)
Grade 3 or greater TEAE: Pruritus ([1]; QDx3d QW (N = 25)): 1 (4%)
Grade 3 or greater TEAE: Rash ([1]; QDx3d QW (N = 25)): 1 (4%)
Grade 3 or greater TEAE: Thrombocytopenia ([1]; QDx3d QW (N = 25)): 0 (0%)
Grade 3 or greater TEAE: Vomiting ([1]; QDx3d QW (N = 25)): 1 (4%)
Patients Reporting at least one Grade 3 or greater TEAE ([1]; QDx3d QW (N = 25)): 18 (72%)
Grade 3 or greater TEAE: Anaemia ([1]; QDx5d QW (N = 15)): 1 (7%)
Grade 3 or greater TEAE: Aspartate aminotransferase increase ([1]; QDx5d QW (N = 15)): 1 (7%)
Grade 3 or greater TEAE: Asthenia ([1]; QDx5d QW (N = 15)): 1 (7%)
Grade 3 or greater TEAE: Blood creatinine increase ([1]; QDx5d QW (N = 15)): 0 (0%)
Grade 3 or greater TEAE: Deep vein thrombosis ([1]; QDx5d QW (N = 15)): 0 (0%)
Grade 3 or greater TEAE: Diarrhoea ([1]; QDx5d QW (N = 15)): 0 (0%)
Grade 3 or greater TEAE: Disease progression ([1]; QDx5d QW (N = 15)): 0 (0%)
Grade 3 or greater TEAE: Fatigue ([1]; QDx5d QW (N = 15)): 2 (13%)
Grade 3 or greater TEAE: Gamma-glutamyltransferase increase ([1]; QDx5d QW (N = 15)): 1 (7%)
Grade 3 or greater TEAE: Hyperglycaemia ([1]; QDx5d QW (N = 15)): 1 (7%)
Grade 3 or greater TEAE: Hypokalaemia ([1]; QDx5d QW (N = 15)): 0 (0%)
Grade 3 or greater TEAE: Hyponatraemia ([1]; QDx5d QW (N = 15)): 0 (0%)
Grade 3 or greater TEAE: Hypophsphataemia ([1]; QDx5d QW (N = 15)): 2 (13%)
Grade 3 or greater TEAE: Lymphopenia ([1]; QDx5d QW (N = 15)): 1 (7%)
Grade 3 or greater TEAE: Mucosal Inflammation ([1]; QDx5d QW (N = 15)): 3 (20%)
Grade 3 or greater TEAE: Muscular weakness ([1]; QDx5d QW (N = 15)): 0 (0%)
Grade 3 or greater TEAE: Nausea ([1]; QDx5d QW (N = 15)): 1 (7%)
Grade 3 or greater TEAE: Neutropenia ([1]; QDx5d QW (N = 15)): 1 (7%)
Grade 3 or greater TEAE: Pruritus ([1]; QDx5d QW (N = 15)): 0 (0%)
Grade 3 or greater TEAE: Rash ([1]; QDx5d QW (N = 15)): 1 (7%)
Grade 3 or greater TEAE: Thrombocytopenia ([1]; QDx5d QW (N = 15)): 0 (0%)
Grade 3 or greater TEAE: Vomiting ([1]; QDx5d QW (N = 15)): 1 (7%)
Patients Reporting at least one Grade 3 or greater TEAE ([1]; QDx5d QW (N = 15)): 8 (53%)
Grade 3 or greater TEAE: Anaemia ([1]; QW Dosing (N = 22)): 2 (9%)
Grade 3 or greater TEAE: Aspartate aminotransferase increase ([1]; QW Dosing (N = 22)): 1 (5%)
Grade 3 or greater TEAE: Asthenia ([1]; QW Dosing (N = 22)): 1 (5%)
Grade 3 or greater TEAE: Blood creatinine increase ([1]; QW Dosing (N = 22)): 0 (0%)
Grade 3 or greater TEAE: Deep vein thrombosis ([1]; QW Dosing (N = 22)): 1 (5%)
Grade 3 or greater TEAE: Diarrhoea ([1]; QW Dosing (N = 22)): 1 (5%)
Grade 3 or greater TEAE: Disease progression ([1]; QW Dosing (N = 22)): 2 (9%)
Grade 3 or greater TEAE: Fatigue ([1]; QW Dosing (N = 22)): 1 (5%)
Grade 3 or greater TEAE: Gamma-glutamyltransferase increase ([1]; QW Dosing (N = 22)): 1 (5%)
Grade 3 or greater TEAE: Hyperglycaemia ([1]; QW Dosing (N = 22)): 0 (0%)
Grade 3 or greater TEAE: Hypokalaemia ([1]; QW Dosing (N = 22)): 1 (5%)
Grade 3 or greater TEAE: Hyponatraemia ([1]; QW Dosing (N = 22)): 0 (0%)
Grade 3 or greater TEAE: Hypophsphataemia ([1]; QW Dosing (N = 22)): 0 (0%)
Grade 3 or greater TEAE: Lymphopenia ([1]; QW Dosing (N = 22)): 1 (5%)
Grade 3 or greater TEAE: Mucosal Inflammation ([1]; QW Dosing (N = 22)): 0 (0%)
Grade 3 or greater TEAE: Muscular weakness ([1]; QW Dosing (N = 22)): 1 (5%)
Grade 3 or greater TEAE: Nausea ([1]; QW Dosing (N = 22)): 0 (0%)
Grade 3 or greater TEAE: Neutropenia ([1]; QW Dosing (N = 22)): 1 (5%)
Grade 3 or greater TEAE: Pruritus ([1]; QW Dosing (N = 22)): 0 (0%)
Grade 3 or greater TEAE: Rash ([1]; QW Dosing (N = 22)): 0 (0%)
Grade 3 or greater TEAE: Thrombocytopenia ([1]; QW Dosing (N = 22)): 0 (0%)
Grade 3 or greater TEAE: Vomiting ([1]; QW Dosing (N = 22)): 1 (5%)
Patients Reporting at least one Grade 3 or greater TEAE ([1]; QW Dosing (N = 22)): 10 (45%)
Grade 3 or greater TEAE: Anaemia ([1]; Total (N = 91)): 6 (7%)
Grade 3 or greater TEAE: Aspartate aminotransferase increase ([1]; Total (N = 91)): 2 (2%)
Grade 3 or greater TEAE: Asthenia ([1]; Total (N = 91)): 4 (4%)
Grade 3 or greater TEAE: Blood creatinine increase ([1]; Total (N = 91)): 2 (2%)
Grade 3 or greater TEAE: Deep vein thrombosis ([1]; Total (N = 91)): 2 (2%)
Grade 3 or greater TEAE: Diarrhoea ([1]; Total (N = 91)): 3 (3%)
Grade 3 or greater TEAE: Disease progression ([1]; Total (N = 91)): 2 (2%)
Grade 3 or greater TEAE: Fatigue ([1]; Total (N = 91)): 3 (3%)
Grade 3 or greater TEAE: Gamma-glutamyltransferase increase ([1]; Total (N = 91)): 3 (3%)
Grade 3 or greater TEAE: Hyperglycaemia ([1]; Total (N = 91)): 9 (10%)
Grade 3 or greater TEAE: Hypokalaemia ([1]; Total (N = 91)): 3 (3%)
Grade 3 or greater TEAE: Hyponatraemia ([1]; Total (N = 91)): 2 (2%)
Grade 3 or greater TEAE: Hypophsphataemia ([1]; Total (N = 91)): 5 (5%)
Grade 3 or greater TEAE: Lymphopenia ([1]; Total (N = 91)): 6 (7%)
Grade 3 or greater TEAE: Mucosal Inflammation ([1]; Total (N = 91)): 7 (8%)
Grade 3 or greater TEAE: Muscular weakness ([1]; Total (N = 91)): 2 (2%)
Grade 3 or greater TEAE: Nausea ([1]; Total (N = 91)): 2 (2%)
Grade 3 or greater TEAE: Neutropenia ([1]; Total (N = 91)): 2 (2%)
Grade 3 or greater TEAE: Pruritus ([1]; Total (N = 91)): 3 (3%)
Grade 3 or greater TEAE: Rash ([1]; Total (N = 91)): 9 (10%)
Grade 3 or greater TEAE: Thrombocytopenia ([1]; Total (N = 91)): 2 (2%)
Grade 3 or greater TEAE: Vomiting ([1]; Total (N = 91)): 3 (3%)
Patients Reporting at least one Grade 3 or greater TEAE ([1]; Total (N = 91)): 53 (58%)
PD (% inhibition, H score) Skin: 4EBP1/PRAS40 ([2]; 10 mg Q5D): 80%
PD (% inhibition, H score) Skin: 4EBP1/PRAS40 ([2]; 13 mg Q5D): 80%
PD (% inhibition, H score) Skin: 4EBP1/PRAS40 ([2]; 16 mg Q3D): 80%
PD (% inhibition, H score) Skin: 4EBP1/PRAS40 ([2]; 20 mg Q3D): 80%
PD (% inhibition, H score) Skin: 4EBP1/PRAS40 ([2]; 30 mg QW): 80%
PD (% inhibition, H score) Skin: 4EBP1/PRAS40 ([2]; 40 mg QW): 80%
pathway inhibition of TORC1 (p4EBP1 and pS6) and TORC2 (pPRAS40) ([2]; skin biopsies): 60-100%

— patent publication US9174994B2, “Enhanced treatment regimens using mTor inhibitors” (INTELLIKINE LLC, priority 2011, dated 2015)
